Assay results: paper PMC4741798, “Imaging of carbonic anhydrase IX with an ^111In-labeled dual-motif inhibitor” (Oncotarget, 2015)

Key:
[1] = target: CAIX; set-up: method as in PMID 25698334; conditions: reported value; cited from earlier work
[2] = target: T1, CAIX (Homo sapiens, UniProt Q16790); test: Competitive fluorescence polarization assay with FITC-labeled 8; assay type: binding; conditions: 100 nM CAIX, 80 nM 8, 30 min room temperature, triplicate; read-out: IC50 (inhibition of fluorescence polarization of FITC labeled 8)
T1 construct: purchased R&D Systems
Text: We synthesized fluorescein isothiocyanate (FITC)-labeled 8 as a standard to measure CAIX binding affinities of the corresponding radiotracers. […] CAIX-selective binding was confirmed by fluorescence microscopic analyses of SK-RC-53 and BxPC3 cells labeled with 8 (Fig. 2). […] In order to test the relative binding of XYIMSR-01 and [^113/115In]XYIMSR-01 to CAIX we modified a competitive fluorescence polarization assay for use with 8. For the competitive binding assay, after optimization for background fluorescence, we chose concentrations of 80 nM and 100 nM for 8 and CAIX, respectively. […] Increasing concentrations of 1, XYIMSR-01 and [^113/115In]XYIMSR-01 were incubated with CAIX for 30 min at room temperature. After 8 was added, fluorescence polarization signal was recorded. […] We took advantage of fluorescence polarization using 8 to measure relative binding affinities for other isoforms of the carbonic anhydrases. We chose to test one cytosolic (CAII) and an additional membrane-localized isoform (CAXII).
Fluorescence polarization (FP) experiments were performed in 21 μL of the assay buffer (12.5 mM Tris-HCl, pH 7.5, 75 mM NaCl) in black flat bottom 384-well microplates (Corning, Inc., New York, NY). The FP reaction employed 100 nM of purified CAIX (R&D systems, Minneapolis, MN) and 80 nM FITC-labeled 8 [27] within the assay buffer. The FP values were measured as mP units using the Victor3 multi-label plate reader equipped with excitation (485 nm) and emission (535 nm) filters (Perkin Elmer, Waltham, MA). 100 nM CAIX was incubated with serially diluted (from 1 μM to 61 fM) concentrations of the three targeting molecules, 1, XYIMSR-01, and [^113/115In]XYIMSR-01 for 30 min at room temperature in 384-well plates. 80 nM 8 was added to each well and the reaction was incubated for 30 min at room temperature followed by FP measurement. Experiments were carried out in triplicate and the concentration resulting in 50% response (IC50) was calculated in GraphPad Prism 5 (GraphPad Software, La Jolla, CA) using the sigmoidal dose-response regression function.

SMILES	Kd [1] [nM]	IC50 [2] [nM]
CC(CCC(=O)N[C@@H](CC(=O)N[C@@H](CC(=O)N[C@@H](CCCCn1cc(CCCC(=O)Nc2nnc(S(N)(=O)=O)s2)nn1)C(=O)NCCOCCOCCN)C(=O)O)C(=O)O)(c1ccc(O)cc1)c1ccc(O)cc1 [Compound 1, N^4-((S)-1-((2-(2-(2-aminoethoxy)ethoxy)ethyl)amino)-1-oxo-6-(4-(4-oxo-4-((5-sulfamoyl-1,3,4-thiadiazol-2-yl)amino)butyl)-1H-1,2,3-triazol-1-yl)hexan-2-yl)-N^2-((S)-3-(4,4-bis(4-hydroxyphenyl)pentanamido)-3-carboxypropanoyl)-L-asparagine, reference compound]	2.6	75.9
CC(CCC(=O)N[C@@H](CC(=O)N[C@@H](CC(=O)N[C@@H](CCCCn1cc(CCCC(=O)Nc2nnc(S(N)(=O)=O)s2)nn1)C(=O)NCCOCCOCCNC(=O)CN1CCN(CC(=O)O)CCN(CC(=O)O)CCN(CC(=O)O)CC1)C(=O)O)C(=O)O)(c1ccc(O)cc1)c1ccc(O)cc1 [XYIMSR-01, 2,2′,2′'-(10-((14S,18S,22S)-18,22-dicarboxy-27,27-bis(4-hydroxyphenyl)-2,13,16,20,24-pentaoxo-14-(4-(4-(4-oxo-4-((5-sulfamoyl-1,3,4-thiadiazol-2-yl)amino)butyl)-1H-1,2,3-triazol-1-yl)butyl)-6,9-dioxa-3,12,15,19,23-pentaazaoctacosyl)-1,4,7,10-tetraazacyclododecane-1,4,7-triyl)triacetic acid]	–	67
CC(CCC(=O)N[C@@H](CC(=O)N[C@@H](CC(=O)N[C@@H](CCCCn1cc(CCCC(=O)Nc2nnc(S(N)(=O)=O)s2)nn1)C(=O)NCCOCCOCCNC(=O)CN1CCN(CC(=O)[O-])CCN(CC(=O)[O-])CCN(CC(=O)[O-])CC1)C(=O)O)C(=O)O)(c1ccc(O)cc1)c1ccc(O)cc1.[In+3] [[^113/115In]XYIMSR-01, ^113/115Indium(III) 2,2′,2′'-(10-((14S,18S,22S)-18,22-dicarboxy-27,27-bis(4-hydroxyphenyl)-2,13,16,20,24-pentaoxo-14-(4-(4-(4-oxo-4-((5-sulfamoyl-1,3,4-thiadiazol-2-yl)amino)butyl)-1H-1,2,3-triazol-1-yl)butyl)-6,9-dioxa-3,12,15,19,23-pentaazaoctacosyl)-1,4,7,10-tetraazacyclododecane-1,4,7-triyl)triacetate]	–	108
